Results: patent publication US11530206B2, “Phenylaminopyrimidine amide autophagy inhibitors and methods of use thereof” (Deciphera Pharmaceuticals, LLC, priority 2019, dated 2022)

What was measured:
[1] = target: T1, ULK1 kinase (Homo sapiens, UniProt O75385, E37A/K38A); assay: Biochemical assay for ULK1.3 (coupled pyruvate kinase/lactate dehydrogenase assay, peptide substrate); settings: 0.1 nM ULK1 (residues 1-283), 1 mM ATP
T1 construct: purchased Beryllium
T1 sequence (O75385 1-283 E37A/K38A): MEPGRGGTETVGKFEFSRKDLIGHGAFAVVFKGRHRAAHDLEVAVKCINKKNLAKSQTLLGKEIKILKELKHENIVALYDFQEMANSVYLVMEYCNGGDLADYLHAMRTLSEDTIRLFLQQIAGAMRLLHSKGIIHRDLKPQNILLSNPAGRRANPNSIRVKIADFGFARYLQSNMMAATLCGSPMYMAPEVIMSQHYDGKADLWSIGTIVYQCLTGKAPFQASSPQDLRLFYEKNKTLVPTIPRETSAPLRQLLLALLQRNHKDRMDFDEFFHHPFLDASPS
Procedure: Biochemical Assay for ULK1.3 (SEQ. ID NO: 2)
Inhibition of ULK1 was measured by adding serial diluted test compound (final assay concentration of 1% DMSO). A decrease in absorption at 340 nm was monitored continuously for 6 hours at 30° C. on a multi-mode microplate reader (BioTek). The reaction rate was calculated using the 2-3 h time frame. The reaction rate at each concentration of compound was converted to percent inhibition using controls (i.e. reaction with no test compound and reaction with a known inhibitor) and IC50 values were calculated using software routines in Prism (GraphPad software).

[2] = tested on: ULK kinase; assay: pATG13 levels of mutant KRas A549 cells after treatment with ULK inhibitors in combination with trametinib (ELISA); assay type: cell-based, human; settings: A549 (KRAS mutant) lung cancer cells, 250 nM trametinib, overnight, pS318-ATG13
Procedure: Cellular Inhibition of ULK Kinase Substrate ATG13 Protein pATG13 Levels of Mutant KRas A549 Cells after Treatment with ULK Inhibitors in Combination with Trametinib
(§1) A549 (KRAS mutant) human lung cancer cells (6,000 cells/well) were added to a 384-well tissue-culture treated plate in 50 μL of pre-warmed DMEM medium supplemented with 10% characterized fetal bovine serum (Invitrogen, Carlsbad, Calif.), 100 units/mL penicillin G, and 100 μg/mL streptomycin and allowed to grow overnight at 37° C., 5% CO2, and 95% humidity. The following day, 10 μL of media containing trametinib or DMSO as a control was added to wells. […] A dose response of a test compound (0.6 μL per well) was added. DMSO (0.6 μL) was added to control wells. The plate was briefly shaken to mix wells and then incubated at 37° C. overnight. The next day, the media was aspirated and cells were washed with Dulbecco's Phosphate Buffered Saline (Gibco). Cells were lysed using MPER lysis buffer (Pierce, Rockford, Ill.) containing Halt Phosphatase and Protease Inhibitors (Pierce, Rockford, Ill.) and Phosphatase inhibitor cocktail 2 (Sigma, St. Louis, Mo.) at 4° C. for 10 minutes with shaking.
(§2) Plate wells were washed with ELISA wash buffer. Cell lysate was added to wells and incubated at room temperature for 2 hours. Plate wells were washed with ELISA wash buffer. […] Plate wells were washed with ELISA wash buffer. […] Plate wells were washed with ELISA wash buffer. […] The reaction was stopped with 2N Sulfuric Acid. The plate was analyzed at on a plate reader measuring absorbance at 450 nm and 540 nm (background). Signal was calculated by first subtracting the background absorbance at 540 nm from the absorbance at 450 nm for each well. Next, the background corrected absorbance at 450 nm from blank wells was subtracted from test wells. Data was compared to control wells to determine % ATG13 phosphorylation. GraphPad Prism was used to calculate IC50 values.

[3] = tested on: ULK kinase; assay: pATG13 levels of mutant KRas MiaPaCa-2 cells after treatment with ULK inhibitors in combination with trametinib (ELISA); assay type: cell-based, human; settings: MiaPaCa-2 pancreatic cancer cells, 250 nM trametinib, overnight, pS318-ATG13
Procedure: as §1, with “MiaPaCa-2” for “A549 (KRAS mutant)”, “pancreatic” for “lung”, “(10000” for “(6,000”, “G, 100 µg/mL streptomycin,” for “G,”, “2.5% Horse Serum” for “100 μg/mL streptomycin”
as §2

[4] = target: T2, LRRK2 kinase (Homo sapiens, UniProt Q5S007); assay: Biochemical assay for LRRK2 (coupled pyruvate kinase/lactate dehydrogenase assay); settings: 26.4 nM LRRK2 (residues 970-2528), peptide substrate, 1 mM ATP
T2 construct: purchased Thermo Fisher
T2 sequence (Q5S007 with tags, fused parts or gaps): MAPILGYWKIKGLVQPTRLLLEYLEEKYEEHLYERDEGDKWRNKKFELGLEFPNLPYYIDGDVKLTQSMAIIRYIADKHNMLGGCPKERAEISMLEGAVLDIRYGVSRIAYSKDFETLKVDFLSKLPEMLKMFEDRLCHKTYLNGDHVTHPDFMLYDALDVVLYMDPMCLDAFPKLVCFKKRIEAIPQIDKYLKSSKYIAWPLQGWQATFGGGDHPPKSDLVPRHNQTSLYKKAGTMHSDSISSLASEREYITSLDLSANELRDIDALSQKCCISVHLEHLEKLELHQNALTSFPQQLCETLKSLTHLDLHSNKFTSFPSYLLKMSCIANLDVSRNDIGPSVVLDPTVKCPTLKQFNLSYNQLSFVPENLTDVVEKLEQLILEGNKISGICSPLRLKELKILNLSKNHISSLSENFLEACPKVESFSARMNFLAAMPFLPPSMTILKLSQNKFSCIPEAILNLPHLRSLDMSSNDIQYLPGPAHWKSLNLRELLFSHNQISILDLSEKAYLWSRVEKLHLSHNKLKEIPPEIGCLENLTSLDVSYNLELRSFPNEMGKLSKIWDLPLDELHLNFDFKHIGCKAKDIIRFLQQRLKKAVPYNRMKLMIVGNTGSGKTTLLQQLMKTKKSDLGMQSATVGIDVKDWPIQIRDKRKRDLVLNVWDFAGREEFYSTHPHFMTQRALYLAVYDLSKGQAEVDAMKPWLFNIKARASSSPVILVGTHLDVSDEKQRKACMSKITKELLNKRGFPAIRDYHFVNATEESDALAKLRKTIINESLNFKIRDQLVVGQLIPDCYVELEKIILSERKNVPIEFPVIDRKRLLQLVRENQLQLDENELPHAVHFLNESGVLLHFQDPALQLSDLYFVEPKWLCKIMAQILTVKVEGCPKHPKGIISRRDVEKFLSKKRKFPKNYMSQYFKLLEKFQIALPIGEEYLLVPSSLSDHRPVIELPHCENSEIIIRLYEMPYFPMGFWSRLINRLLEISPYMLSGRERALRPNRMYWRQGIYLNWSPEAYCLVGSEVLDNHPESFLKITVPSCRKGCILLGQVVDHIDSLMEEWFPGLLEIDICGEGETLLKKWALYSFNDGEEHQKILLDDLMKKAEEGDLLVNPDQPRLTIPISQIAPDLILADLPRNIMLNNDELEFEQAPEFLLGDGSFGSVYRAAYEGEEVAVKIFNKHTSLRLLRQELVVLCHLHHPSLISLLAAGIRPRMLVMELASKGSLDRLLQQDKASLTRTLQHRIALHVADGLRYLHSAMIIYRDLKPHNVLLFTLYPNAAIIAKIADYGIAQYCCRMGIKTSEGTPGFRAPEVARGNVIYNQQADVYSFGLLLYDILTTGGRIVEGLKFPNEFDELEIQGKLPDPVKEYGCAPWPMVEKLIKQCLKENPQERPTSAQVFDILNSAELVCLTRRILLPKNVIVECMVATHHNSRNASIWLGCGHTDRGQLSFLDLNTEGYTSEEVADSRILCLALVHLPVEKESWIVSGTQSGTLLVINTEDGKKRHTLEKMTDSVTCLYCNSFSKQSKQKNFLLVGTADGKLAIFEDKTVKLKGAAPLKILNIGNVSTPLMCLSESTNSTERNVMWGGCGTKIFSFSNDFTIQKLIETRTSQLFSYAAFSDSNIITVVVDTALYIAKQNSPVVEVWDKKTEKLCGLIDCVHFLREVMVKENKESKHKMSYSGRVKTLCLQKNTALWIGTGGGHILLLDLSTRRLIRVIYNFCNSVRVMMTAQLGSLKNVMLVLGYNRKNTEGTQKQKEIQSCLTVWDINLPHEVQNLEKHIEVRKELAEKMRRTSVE
Procedure: Example 138. Biochemical Assay for LRRK2 (SEQ. ID NO: 4)
Activity of LRRK2 kinase was determined spectroscopically using a coupled pyruvate kinase/lactate dehydrogenase assay that continuously monitors the ATP hydrolysis-dependent oxidation of NADH (e.g., Schindler et al. Science (2000) 289: 1938-1942). Assays were conducted in 384-well plates (100 μL final volume) using 26.4 nM LRRK2 (Thermo Fisher), 0.1 mM peptide substrate ([…] (SEQ ID NO: 6)), 1.5 units pyruvate kinase, 2.1 units lactate dehydrogenase, 1 mM phosphoenol pyruvate, 0.28 mM NADH and 1 mM ATP in assay buffer (100 mM Tris, pH 7.5, 15 mM MgCl2, 0.5 mM DTT, 0.004% (w/v) BSA, and 0.004% Triton X-100). Inhibition of LRRK2 was measured by adding serial diluted test compound (final assay concentration of 1% DMSO). A decrease in absorption at 340 nm was monitored continuously for 6 hours at 30° C. on a multi-mode microplate reader (BioTek). The reaction rate was calculated using the 2-3 h time frame. The reaction rate at each concentration of compound was converted to percent inhibition using controls (i.e. reaction with no test compound and reaction with a known inhibitor) and IC50 values were calculated using software routines in Prism (GraphPad software).

Row | SMILES | IC50 [1] [nM] | IC50 [2] [nM] | IC50 [3] [nM] | IC50 [4] [nM]
1 | CCc1cc(N2CC3CCC(C2)N3C)ccc1Nc1ncc(C(F)(F)F)c(NCCCN2CCCCC2=O)n1 [Example 68] | 1 to 25 | 10 to 100 | 10 to 100 | 100 to 300
2 | CC(C)c1cc(N2CCN(C)CC2)ccc1Nc1ncc(C(F)(F)F)c(NCCCN2CCCCC2=O)n1 [Example 33] | 1 to 25 | 100 to 300 | 10 to 100 | 300 to 600
3 | CCc1cc(N2CCN(C)CC2=O)ccc1Nc1ncc(C(F)(F)F)c(NCCCN2CCCOC2=O)n1 [Example 56] | 25 to 100 | – | – | 100 to 300
4 | CCc1cc(N2CCN(C)C(=O)C2)ccc1Nc1ncc(C(F)(F)F)c(NCCCN2CCOCCC2=O)n1 [Example 115] | 100 to 500 | – | – | 100 to 300
5 | CCc1cc(N2CCCN(C)CC2)ccc1Nc1ncc(C(F)(F)F)c(NCCCN2CCOCCC2=O)n1 [Example 79] | 1 to 25 | 100 to 300 | 10 to 100 | 100 to 300
6 | CCc1cc(N2C[C@H]3C[C@@H]2CN3C)ccc1Nc1ncc(C(F)(F)F)c(NCCCN2CCOCCC2=O)n1 [Example 124] | 1 to 25 | 10 to 100 | 10 to 100 | 100 to 300
7 | CCc1cc(N2CCN(C)CC2)ccc1Nc1ncc(C2CC2)c(NCCCN2CCCOCC2=O)n1 [Example 61] | > 500 | – | – | > 600
8 | CN1CCN(c2ccc(Nc3ncc(C(F)(F)F)c(NCCCN4CCCCC4=O)n3)c(C3CC3)c2)CC1=O [Example 49] | 100 to 500 | – | – | 100 to 300
9 | CCc1cc(N2C[C@@H]3C[C@H]2CN3C)ccc1Nc1ncc(C(F)(F)F)c(NCCCN2CCCOC2=O)n1 [Example 120] | 1 to 25 | 100 to 300 | 100 to 300 | 100 to 300
10 | CN1C[C@@H]2C[C@H]1CN2c1ccc(Nc2ncc(C(F)(F)F)c(NCCCN3CCCOC3=O)n2)c(C2CC2)c1 [Example 117] | 25 to 100 | 100 to 300 | 10 to 100 | 1 to 100
11 | CN1CCN(c2ccc(Nc3ncc(C(F)(F)F)c(NCCCN4CCC(C)(C)OC4=O)n3)c(C3CC3)c2)CC1 [Example 148] | 1 to 25 | 10 to 100 | 10 to 100 | 100 to 300
12 | CCc1cc(N2CCN(C)CC2)ccc1Nc1ncc(C#N)c(NCCCN2CCOCCC2=O)n1 [Example 129] | 25 to 100 | 300 to 600 | 100 to 300 | > 600
13 | CN1CCN(c2ccc(Nc3ncc(C(F)(F)F)c(NCCCN4CCCCC4=O)n3)c(C3CCCC3)c2)CC1 [Example 113] | 1 to 25 | – | – | 100 to 300
14 | CCc1cc(N2CCN(C)CC2)ccc1Nc1cc(NCCCN2CCOCCC2=O)c(C(F)(F)F)cn1 [Example 92] | 1 to 25 | 300 to 600 | 100 to 300 | > 600
15 | CCc1cc(N2CC[C@@H](C#N)C2)ccc1Nc1ncc(C(F)(F)F)c(NCCCN2CCCCC2=O)n1 [Example 93] | 100 to 500 | – | – | 100 to 300
16 | CCc1cc(N2CC[C@H](C#N)C2)ccc1Nc1ncc(C(F)(F)F)c(NCCCN2CCCCC2=O)n1 [Example 48] | 100 to 500 | – | – | 100 to 300

Row | SMILES | IC50 [1] [nM] | IC50 [2] [nM] | IC50 [3] [nM] | IC50 [4] [nM]
17 | CN(C)C1CN(c2ccc(Nc3ncc(Br)c(NCCCN4CCCCC4=O)n3)c(C3CC3)c2)C1 [Example 118] | 25 to 100 | – | – | 1 to 100
18 | CCc1cc(N2CCN(C)CC2)c(F)cc1Nc1ncc(C(F)(F)F)c(NCCCN2CCCOCC2=O)n1 [Example 64] | 100 to 500 | – | – | 1 to 100
19 | CCc1cc(N2C[C@H]3C[C@@H]2CN3C)ccc1Nc1ncc(C(F)(F)F)c(NCCCN2CCCOC2=O)n1 [Example 123] | 1 to 25 | 10 to 100 | – | 100 to 300
20 | CN1CCN(c2ccc(Nc3ncc(C(F)(F)F)c(NCCCN4CCCOC4=O)n3)c(C3CCCC3)c2)CC1 [Example 111] | 1 to 25 | – | – | 100 to 300
21 | CCN1CCN(c2ccc(Nc3ncc(Br)c(NCCCN4CCCCC4=O)n3)c(C(C)C)c2)CC1 [Example 30] | 25 to 100 | 300 to 600 | 100 to 300 | –
22 | Cc1cc(N2C[C@H]3C[C@@H]2CO3)ccc1Nc1ncc(C(F)(F)F)c(NCCCN2CCOCCC2=O)n1 [Example 78] | 100 to 500 | – | – | 100 to 300
23 | CCc1cc(N2CC3CCC(C2)N3)ccc1Nc1ncc(C(F)(F)F)c(NCCCN2CCOCCC2=O)n1 [Example 150] | 1 to 25 | 100 to 300 | 10 to 100 | –
24 | CCc1cc(N2CCN(C)CC2)ccc1Nc1ncc(Br)c(NCCCN2CCCOC2=O)n1 [Example 44] | 1 to 25 | 10 to 100 | 10 to 100 | –
25 | CC(C)c1cc(N2CCN(C)CC2)ccc1Nc1ncc(Cl)c(NCCCN2CCOCCC2=O)n1 [Example 88] | 25 to 100 | 300 to 600 | 100 to 300 | –
26 | CCc1cc(N2CCN(C)CC2)ncc1Nc1ncc(C(F)(F)F)c(NCCCN2CCOCCC2=O)n1 [Example 67] | 1 to 25 | 100 to 300 | 100 to 300 | –
27 | O=C1COCCCN1CCCNc1nc(Nc2ccc(N3CCNCC3)cc2C2CC2)ncc1C(F)(F)F [Example 62] | 1 to 25 | 100 to 300 | 10 to 100 | –
28 | CN1C2CCC1CN(c1ccc(Nc3ncc(C(F)(F)F)c(NCCCN4CCCCC4=O)n3)c(C3CC3)c1)C2 [Example 130] | 25 to 100 | 300 to 600 | 300 to 600 | –
29 | CN1CCN(c2ccc(Nc3ncc(Br)c(NCCCN4CCCCC4=O)n3)c(C3CC3)c2)CC1 [Example 26] | 1 to 25 | 100 to 300 | 10 to 100 | –
30 | CCc1cc(N2CCCN(C)CC2)ccc1Nc1ncc(C(F)(F)F)c(NCCCN2CCCCC2=O)n1 [Example 31] | 1 to 25 | 300 to 600 | 100 to 300 | –
31 | CCc1cc(N2CCN(C)C(=O)C2)ccc1Nc1ncc(C(F)(F)F)c(NCCCN2CCCOC2=O)n1 [Example 114] | 25 to 100 | – | – | 1 to 100
32 | CCc1cc(N2CCN(C)CC2)ccc1Nc1ncc(Br)c(NCCCN2CCCOCC2=O)n1 [Example 100] | 25 to 100 | 100 to 300 | 100 to 300 | –
